As usually defined, the Emax is the size of the effect at its maximum, as opposed to the concentration needed.

The assay has as its system beta-TC6 cells. Description: Insulin HTRF assay, relative activity Ar normalized to sunitinib. Type of assay: cell-based. Conditions: Mus musculus, normalized to positive control sunitinib (5 µM = 100%), Table 10. Summed up: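 beta-TC6 cells (15k/well) were seeded for 24 or 48 h, washed and exposed to test compound or sunitinib (5 µM f.c.) in induction buffer with 0.5% DMSO for 2, 3 or 4 h at 37°C. Secreted insulin in the supernatant was measured by two-antibody HTRF after 120 min at RT. Ar = (V − 0% control)/(100% control − 0% control) × 100.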
(In TR-FRET formats the signal depends on donor and acceptor labels being close together.)
The molecule `COc1ccc(-c2cnc3cnc(-c4ccc(N5CCN(C)CC5)cc4)cn23)cn1` [compound 381, 3-(6-methoxy-3-pyridyl)-6-[4-(4-methylpiperazin-1-yl)phenyl]imidazo[1,2-a]pyrazine] registered a maximum response (Emax) of 20 to 50%. Molecule `COc1ccc(-c2cn3c(-c4ccc(OC)nc4)cnc3cn2)cn1` [compound 382, 3,6-bis(6-methoxy-3-pyridyl)imidazo[1,2-a]pyrazine] returned a maximum response (Emax) of 20 to 50%.

For the molecule `COc1ccc(-c2cnc3cnc(-c4cccc(C(N)=O)c4)cn23)cn1` [compound 383, 3-[3-(6-methoxy-3-pyridyl)imidazo[1,2-a]pyrazin-6-yl]benzamide], the maximum response (Emax) fell in the range of 20 to 50%. The molecule `Nc1cccc(-c2cn3c(-c4cccc(F)c4)cnc3cn2)c1` [compound 384, 3-[3-(3-fluorophenyl)imidazo[1,2-a]pyrazin-6-yl]aniline] registered a maximum response (Emax) of 20 to 50%. With `Fc1cccc(-c2cnc3cnc(-c4ccccc4)cn23)c1` [compound 385, 3-(3-fluorophenyl)-6-phenyl-imidazo[1,2-a]pyrazine], the Emax lay in the range of 20 to 50%. In the case of `Fc1cccc(-c2cnc3cnc(-c4ccc5c(c4)OCO5)cn23)c1` [compound 386, 6-(1,3-benzodioxol-5-yl)-3-(3-fluorophenyl)imidazo[1,2-a]pyrazine], the maximum response (Emax) is 20 to 50%.

For `Fc1cccc(-c2cnc3cnc(-c4ccc(N5CCNCC5)cc4)cn23)c1` [compound 387, 3-(3-fluorophenyl)-6-(4-piperazin-1-ylphenyl)imidazo[1,2-a]pyrazine], the maximal response (Emax) lay in the range of 10 to 20%. In turn, `Fc1cccc(-c2cnc3cnc(-c4ccc(Cl)cc4)cn23)c1` [compound 388, 6-(4-chlorophenyl)-3-(3-fluorophenyl)imidazo[1,2-a]pyrazine] yielded an Emax of 20 to 50%. Take `OCc1ccc(-c2cn3c(-c4cccc(F)c4)cnc3cn2)cc1` [compound 389, [4-[3-(3-fluorophenyl)imidazo[1,2-a]pyrazin-6-yl]phenyl]methanol]: the Emax is 20 to 50%. The molecule `Fc1cccc(-c2cnc3cnc(-c4cccs4)cn23)c1` [compound 390, 3-(3-fluorophenyl)-6-(2-thienyl)imidazo[1,2-a]pyrazine] showed a maximal effect (Emax) of 20 to 50%.

`COc1cc(-c2cnc3cnc(-c4ccc(OCCCN(C)C)nc4)cn23)ccc1O` [compound 391, 4-[6-[6-[3-(dimethylamino)propoxy]-3-pyridyl]imidazo[1,2-a]pyrazin-3-yl]-2-methoxy-phenol] displayed an Emax of 20 to 50%. For the molecule `COc1cc(-c2cnc3cnc(-c4ccc(NCCN5CCOCC5)nc4)cn23)ccc1O` [compound 392, 2-methoxy-4-[6-[6-(2-morpholinoethylamino)-3-pyridyl]imidazo[1,2-a]pyrazin-3-yl]phenol], the maximal effect (Emax) is 20 to 50%. `COc1cc(-c2cnc3cnc(-c4ccc(N5CCN(C)CC5)nc4)cn23)ccc1O` [compound 393, 2-methoxy-4-[6-[6-(4-methylpiperazin-1-yl)-3-pyridyl]imidazo[1,2-a]pyrazin-3-yl]phenol]: the Emax was 20 to 50%. The molecule `COc1cc(-c2cnc3cnc(-c4ccc5c(c4)OCO5)cn23)ccc1O` [compound 394, 4-[6-(1,3-benzodioxol-5-yl)imidazo[1,2-a]pyrazin-3-yl]-2-methoxy-phenol] showed an Emax of 20 to 50%. The same measure for `CCOc1cccc(-c2cn3c(-c4ccc(O)c(OC)c4)cnc3cn2)c1` [compound 395, 4-[6-(3-ethoxyphenyl)imidazo[1,2-a]pyrazin-3-yl]-2-methoxy-phenol]: 50 to 100%. Turning to `COc1cc(-c2cnc3cnc(-c4ccc(N)nc4)cn23)ccc1O` [compound 396, 4-[6-(6-amino-3-pyridyl)imidazo[1,2-a]pyrazin-3-yl]-2-methoxy-phenol], the Emax lay in the range of 20 to 50%. The molecule `COc1cc(-c2cnc3cnc(-c4cnn(C)c4)cn23)ccc1O` [compound 397, 2-methoxy-4-[6-(1-methylpyrazol-4-yl)imidazo[1,2-a]pyrazin-3-yl]phenol] registered a maximal effect (Emax) of 50 to 100%. As for `CN(C)CCCNC(=O)c1ccc(-c2cn3c(-c4ccc5c(ccn5C)c4)cnc3cn2)cc1` [compound 398, N-[3-(dimethylamino)propyl]-4-[3-(1-methylindol-5-yl)imidazo[1,2-a]pyrazin-6-yl]benzamide], the Emax was 20 to 50%.

Molecule `Cn1ccc2cc(-c3cnc4cnc(-c5cccc(C(=O)NCCO)c5)cn34)ccc21` [compound 399, N-(2-hydroxyethyl)-3-[3-(1-methylindol-5-yl)imidazo[1,2-a]pyrazin-6-yl]benzamide] yielded an Emax of 20 to 50%. Molecule `COc1cc(-c2cn3c(-c4ccc5c(ccn5C)c4)cnc3cn2)ccc1O` [compound 400, 2-methoxy-4-[3-(1-methylindol-5-yl)imidazo[1,2-a]pyrazin-6-yl]phenol] yielded an Emax of 20 to 50%. Molecule `Cn1ccc2cc(-c3cnc4cnc(-c5cccc(C(N)=O)c5)cn34)ccc21` [compound 401, 3-[3-(1-methylindol-5-yl)imidazo[1,2-a]pyrazin-6-yl]benzamide] showed an Emax of 20 to 50%. `CN1CCN(C(=O)c2ccc(-c3cnc4cnc(/C=C/c5ccccc5)cn34)cc2)CC1` [compound 402, (4-methylpiperazin-1-yl)-[4-[6-[(E)-styryl]imidazo[1,2-a]pyrazin-3-yl]phenyl]methanone] yielded an Emax of 10 to 20%. With `CS(=O)(=O)Nc1cccc(-c2cn3c(-c4ccc(Oc5ccccc5)cc4)cnc3cn2)c1` [compound 403, N-[3-[3-(4-phenoxyphenyl)imidazo[1,2-a]pyrazin-6-yl]phenyl]methanesulfonamide], the maximal response (Emax) fell in the range of 20 to 50%. `Cc1ccccc1-c1cnc2cnc(-c3cccc(F)c3)cn12` [compound 404, 6-(3-fluorophenyl)-3-(o-tolyl)imidazo[1,2-a]pyrazine] came in with an Emax of 10 to 20%.

For the molecule `Cc1ccccc1-c1cnc2cnc(-c3cccs3)cn12` [compound 405, 3-(o-tolyl)-6-(2-thienyl)imidazo[1,2-a]pyrazine], the Emax is 10 to 20%.

For the molecule `COc1cc(-c2cn3c(-c4ccccc4Cl)cnc3cn2)ccc1O` [compound 406, 4-[3-(2-chlorophenyl)imidazo[1,2-a]pyrazin-6-yl]-2-methoxy-phenol], the Emax was in the range of 20 to 50%. The molecule `CC(C)(C)c1ccc(-c2cnc3cnc(-c4ccc(N)nc4)cn23)cc1` [compound 408, 5-[3-(4-tert-butylphenyl)imidazo[1,2-a]pyrazin-6-yl]pyridin-2-amine] displayed an Emax of 10 to 20%. For the molecule `CC(=O)c1cccc(-c2cnc3cnc(-c4cccnc4)cn23)c1` [compound 409, 1-[3-[6-(3-pyridyl)imidazo[1,2-a]pyrazin-3-yl]phenyl]ethanone], the maximal response (Emax) lay in the range of 20 to 50%. `CC(=O)c1cccc(-c2cnc3cnc(-c4cccc(F)c4)cn23)c1` [compound 410, 1-[3-[6-(3-fluorophenyl)imidazo[1,2-a]pyrazin-3-yl]phenyl]ethanone] returned an Emax of 20 to 50%. The same measure for `CC(=O)c1cccc(-c2cnc3cnc(-c4ccc(C(=O)NCCN(C)C)cc4)cn23)c1` [compound 411, 4-[3-(3-acetylphenyl)imidazo[1,2-a]pyrazin-6-yl]-N-(2-dimethylaminoethyl)benzamide]: 20 to 50%; for `CN(C)c1ccccc1-c1cn2c(-c3cccs3)cnc2cn1` [compound 413, N,N-dimethyl-2-[3-(2-thienyl)imidazo[1,2-a]pyrazin-6-yl]aniline]: 20 to 50%; for `c1csc(-c2cnc3cnc(-c4ccncc4)cn23)c1` [compound 414, 6-(4-pyridyl)-3-(2-thienyl)imidazo[1,2-a]pyrazine]: 20 to 50%. Turning to `c1csc(-c2cnc3cnc(-c4ccsc4)cn23)c1` [compound 415, 3-(2-thienyl)-6-(3-thienyl)imidazo[1,2-a]pyrazine], the maximal effect (Emax) was in the range of 50 to 100%. As for `c1csc(-c2cnc3cnc(-c4cc5ccccc5s4)cn23)c1` [compound 416, 6-(benzothiophen-2-yl)-3-(2-thienyl)imidazo[1,2-a]pyrazine], the figure is 50 to 100%.

In the case of `Oc1ccc(-c2cn3c(-c4cccs4)cnc3cn2)cc1` [compound 417, 4-[3-(2-thienyl)imidazo[1,2-a]pyrazin-6-yl]phenol], the Emax lay in the range of 50 to 100%. The same measure for `FC(F)(F)Oc1ccc(-c2cn3c(-c4cccs4)cnc3cn2)cc1` [compound 418, 3-(2-thienyl)-6-[4-(trifluoromethoxy)phenyl]imidazo[1,2-a]pyrazine]: 20 to 50%. On to `C(=C\c1cn2c(-c3cccs3)cnc2cn1)/c1ccccc1` [compound 419, 6-[(E)-styryl]-3-(2-thienyl)imidazo[1,2-a]pyrazine], for which the Emax lay within 20 to 50%. Consider `O=C(NCCO)c1cccc(-c2cn3c(-c4cccs4)cnc3cn2)c1` [compound 420, N-(2-hydroxyethyl)-3-[3-(2-thienyl)imidazo[1,2-a]pyrazin-6-yl]benzamide], for which the Emax fell in the range of 20 to 50%. `Clc1cccc(-c2cn3c(-c4cccs4)cnc3cn2)c1` [compound 421, 6-(3-chlorophenyl)-3-(2-thienyl)imidazo[1,2-a]pyrazine] had an Emax of 20 to 50%. The molecule `OCc1ccc(-c2cn3c(-c4cccs4)cnc3cn2)cc1` [compound 422, [4-[3-(2-thienyl)imidazo[1,2-a]pyrazin-6-yl]phenyl]methanol] returned a maximum response (Emax) of 20 to 50%. As for `O=C(NCCO)c1ccc(-c2cn3c(-c4cccs4)cnc3cn2)cc1` [compound 423, N-(2-hydroxyethyl)-4-[3-(2-thienyl)imidazo[1,2-a]pyrazin-6-yl]benzamide], the figure is 10 to 20%. `c1csc(-c2cn3c(-c4cccs4)cnc3cn2)c1` [compound 424, 3,6-bis(2-thienyl)imidazo[1,2-a]pyrazine] had a maximum response (Emax) of 50 to 100%.

With `CS(=O)(=O)Nc1cccc(-c2cn3c(-c4cccs4)cnc3cn2)c1` [compound 425, N-[3-[3-(2-thienyl)imidazo[1,2-a]pyrazin-6-yl]phenyl]methanesulfonamide], the maximal effect (Emax) was in the range of 20 to 50%. `COc1cc(OC)cc(-c2cn3c(-c4cccs4)cnc3cn2)c1` [compound 426, 6-(3,5-dimethoxyphenyl)-3-(2-thienyl)imidazo[1,2-a]pyrazine] had an Emax of 20 to 50%.
